Assay [1] has as its system SUM159 breast cancer cell line. Description: MTT cell viability assay, SUM159. Format: cell-based, human. The conditions noted are these: for inhibitory effect compared to parent compound LLM4: SUM159, 25 μM, 48 hours. As for the experimental part: (§1) Human breast cancer cell lines MCF7, MDA-MB-231 and SUM159 were maintained in Dulbecco's modified Eagle medium (DMEM). Human pancreatic cancer cell line BxPC-3 was maintained in RPMI 1640 medium. Human pancreatic cancer cell line Capan-1 was maintained in Iscove's Modified Dulbecco's Medium (IMEM). All media were supplemented with 10% FBS and 1% penicillin/streptomycin, and cells were incubated in a humidified 37° C. incubator with 5% CO2. PE/CA-PJ49 cell line was purchased from external sources and maintained according to manufacturer's protocol.
(§2) Cell viability was evaluated by using the MTT assay in triple replicates in one experiment and repeated for three times. Cancer cells were seeded in 96-well plates at a density of 3,000 cells per well. The cells were incubated at 37° C. for a period of 24 hours. Escalating concentrations of IL-6/gp130 inhibitors were added in triplicate to the plates in the presence of 10% FBS. After incubation for 48 or 72 hours, a stock solution of MTT (0.5 mg/ml) was then added to each well containing the treated cells, followed by incubation at 37° C. for 3 h. After removal of medium, the MTT dye was dissolved with spectrophotometric grade DMSO and the absorbance was read at 570 nm. The IC50 value is determined by interpolation based on the absorbance value halfway between positive and negative controls.

The test system of assay [2] is BxPC-3 pancreatic cancer cell line. The assay can be described thus: MTT cell viability assay, BxPC-3. In kind it is cell-based, human. Conditions: for IC50: Homo sapiens, BxPC-3, Table 7; for inhibitory effect compared to parent compound LLM4: BxPC-3, 25 μM, 48 hours. As for the experimental part: as §1
as §2, with “controls. In the experiment of LLM4 showing higher efficacy in cancer cells with higher levels of IL-6, instead of using medium with 10% FBS, DMEM with 0% FBS was used in order to eliminate the influence of trace amounts of growth factors and cytokines in FBS.” for “controls.”
For orientation: Tetrazolium dyes change colour on reduction, which living cells bring about.

The test system of assay [3] is PE/CA-PJ49 cell line. The assay can be described thus: Inhibitory activity in PTPRD mutant cell line PE/CA-PJ49. Format: cell-based. The conditions noted are these: PE/CA-PJ49, 48 h. As for the experimental part: as §1
as §2, with “controls. In the experiment of LLM4 showing higher efficacy in cancer cells with higher levels of IL-6, instead of using medium with 10% FBS, DMEM with 0% FBS was used in order to eliminate the influence of trace amounts of growth factors and cytokines in FBS.” for “controls.”
Protein tyrosine […] receptor type D (PTPRD) is reported to serve as a tumor suppressor in various human cancers [Peyser et. al, PLoS One (2015) 10(8)]. PTPRD mutation is also known to be associated with increased STAT3 expression [Peyser et. al, PLoS One (2015) 10(8)]. Table 8 captures the inhibitory activities of various compounds in the PTPRD mutant cell line, PE/CA-PJ49.

For assay [4], the system named is multiple myeloma cell line U266. Description: Cell viability assay, U266. In kind it is cell-based, human. As for the experimental part:
as §2, with “controls. In the experiment of LLM4 showing higher efficacy in cancer cells with higher levels of IL-6, instead of using medium with 10% FBS, DMEM with 0% FBS was used in order to eliminate the influence of trace amounts of growth factors and cytokines in FBS.” for “controls.”
It was reported in multiple myeloma cell line U266 that IL-6 is also elevated and of great importance for cancer progression [Jernberg W, Pettersson M, Carlsson M, et al. Increase in interleukin 6 (IL-6) and IL-6 receptor expression in a human multiple myeloma cell line, U-266, during long-term in vitro culture and the development of a possible autocrine IL-6 loop 1. Leukemia. 1992, 4, 310-318]. These novel IL-6/gp130 inhibitors were tested in U266 cells at a concentration of 25 μM for an incubation time of 48 and 72 hours. MDL16 and LLM4 were used as control compounds.

The target in assay [5] is T1, gp130-D1-D3 (Homo sapiens, UniProt P40189).
T1 construct: residues 1-301, the numbering system is based on PDB 3L5H, which is the mature form of gp130; tandem TFH purification tag (includes FLAG, as purified on anti-FLAG M2 agarose) (C); made in house; host or cells: Hi5 insect cells (baculovirus; virus generated in sf9)
T1 sequence (P40189 23-323): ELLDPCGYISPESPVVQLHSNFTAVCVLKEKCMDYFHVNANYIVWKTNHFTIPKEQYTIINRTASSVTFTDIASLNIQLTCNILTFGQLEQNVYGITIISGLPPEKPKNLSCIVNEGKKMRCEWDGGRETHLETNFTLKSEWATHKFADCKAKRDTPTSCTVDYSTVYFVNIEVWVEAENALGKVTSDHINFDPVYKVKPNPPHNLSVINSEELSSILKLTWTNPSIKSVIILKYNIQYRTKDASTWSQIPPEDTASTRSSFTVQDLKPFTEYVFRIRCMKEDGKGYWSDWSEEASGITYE
Description: SPR direct binding to immobilized gp130-D1-D3 (CM5 chip). Conditions: for Kd: SPR, gp130-D1-D3, linear regression at low concentrations, 25% Rmax; for ΔGexp: experimental binding energy from SPR KD.

For assay [6], the system named is IL-6 induced STAT3 phosphorylation. Description: Western blot, IL-6 induced STAT3 phosphorylation in MCF7. In kind it is cell-based, human. The conditions noted are these: MCF7, 1-4 μM, 5 h, IL-6 50 ng/ml. As for the experimental part:
Cells were harvested and lysed in cold radioimmunoprecipitation assay (RIPA) lysis buffer containing proteasome inhibitor cocktail and phosphatase inhibitor cocktail. The protein concentrations were determined using the BCA Protein Assay kit. After adding the loading buffer and boiling at 95° C. for 10 minutes, equivalent amounts of proteins were loaded on and separated by SDS-PAGE, and then were transferred to PVDF membranes. Membranes were probed with primary antibodies (1:1000) against phospho-STAT3 (Tyr705), STAT3, phospho-STAT1 (Tyr701), STAT1, phospho-STAT6 (Tyr 641), STAT6, and GAPDH, respectively, and horseradish peroxidase (HRP)-conjugated secondary antibody (1:10000) (Cell Signaling Technology, Beverly, Mass.). Membranes were analyzed using Enhanced Chemiluminescence Plus reagents and either scanned with the Storm Scanner (Amersham Pharmacia Biotech, Inc., Piscataway, N.J.) or imaged with ChemiDoc MP imaging system (Bio-Rad, Hercules, Calif.). For cytokine induction of STAT3 phosphorylation, MCF-7 breast cancer cells were seeded in 10 cm plates (1 million cells per plate) and allowed to adhere overnight followed by serum-starvation. […] After designated hours, LLM-418 treated and untreated cells were stimulated by IL-6, LIF, and OSM (50 ng/mL). The cells were harvested after 30 minutes and analyzed by Western blot.
MCF7 breast cancer cells were seeded in 10 cm plates (1 million cells per plate) and allowed to adhere overnight. The following day, the cells were serum-starved. The cells were then left untreated or treated with LLM4 (5-20 μM). After designated hours, the LLM4 treated and untreated cells were stimulated by IL-6, LIF, OSM, CNTF, CT-1, IL-11, IL-4 or INF-γ (50 ng/ml). The cells were harvested after 30 minutes and analyzed by western blotting.
For orientation: Immunoblotting shows a protein as a band on a membrane.

The target of assay [7] is Extracellular Domain of gp130 (Homo sapiens, UniProt P40189). The conditions noted are these: literature value; read-out: reported binding affinity; cited from earlier work.
Sequence of Extracellular Domain of gp130 (P40189 23-619 limits assumed): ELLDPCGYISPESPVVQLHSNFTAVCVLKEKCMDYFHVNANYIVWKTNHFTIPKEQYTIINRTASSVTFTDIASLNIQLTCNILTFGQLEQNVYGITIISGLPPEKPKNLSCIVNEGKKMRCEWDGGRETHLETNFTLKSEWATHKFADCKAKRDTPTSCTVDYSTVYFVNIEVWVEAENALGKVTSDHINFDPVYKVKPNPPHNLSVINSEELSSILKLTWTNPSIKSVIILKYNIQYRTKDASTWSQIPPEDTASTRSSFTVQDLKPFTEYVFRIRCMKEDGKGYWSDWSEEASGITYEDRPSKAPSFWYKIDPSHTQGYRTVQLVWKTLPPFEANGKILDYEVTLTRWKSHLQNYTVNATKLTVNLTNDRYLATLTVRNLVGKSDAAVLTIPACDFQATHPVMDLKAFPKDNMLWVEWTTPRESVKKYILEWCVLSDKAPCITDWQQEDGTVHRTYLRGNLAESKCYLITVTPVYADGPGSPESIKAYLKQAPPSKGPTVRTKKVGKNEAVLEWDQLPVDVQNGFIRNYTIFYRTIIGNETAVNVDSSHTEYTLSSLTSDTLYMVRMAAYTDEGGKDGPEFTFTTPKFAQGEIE
For assay [8], the system named is SUM159 breast cancer cell line. Description: MTT cell viability assay, SUM159. Format: cell-based, human. Conditions: SUM159 (high IL-6), 48 h, 0% FBS medium.
Assay [9] concerns MDA-MB-231 breast cancer cell line. The assay can be described thus: MTT cell viability assay, MDA-MB-231. In kind it is cell-based, human. The conditions noted are these: MDA-MB-231 (medium IL-6), 48 h, 0% FBS medium. As for the experimental part:
as §1
as §2, with “Escalating concentrations of IL-6/gp130 inhibitors were added in triplicate to the plates in the presence of 10% FBS.” left out, “controls. […]” for “controls.”

The test system of assay [10] is MCF7 breast cancer cell line. The assay can be described thus: MTT cell viability assay, MCF7. Format: cell-based, human. The conditions noted are these: MCF7 (low IL-6), 48 h, 0% FBS medium. As for the experimental part: as §1
as §2, with “Escalating concentrations of IL-6/gp130 inhibitors were added in triplicate to the plates in the presence of 10% FBS.” left out, “controls. […]” for “controls.”

Setting [11] is: SUM159 human breast cancer cell line, MTT.

Consider `Cc1c(-c2ccc(O)cc2)n(Cc2ccc(OCCN3CCCCCC3)cc2)c2ccc(O)cc12` [Bazedoxifene, reference compound], for which the IC50 – broadly, the midpoint of a concentration-inhibition curve – worked out at 4.6 µM in [1] (Homo sapiens, SUM159, Table 7) and 1.8 µM in [2].

Take `CN(C)C(=O)Oc1cccc2c1C(=O)c1cccc(S(N)(=O)=O)c1C2=O` [LLL12B]: in assay [3], the IC50 is 0.0159 ± 0.00371 µM.

In assay [3], `NS(=O)(=O)c1cccc2c1C(=O)c1cccc(O)c1C2=O` [LLL12] returned an IC50 of 0.019 ± 0.00283 µM.

`O=C(Nc1cc(F)ccc1-n1cccc1)c1ccc(OCCN2CCCCC2)cc1` [LLM3, N-(5-fluoro-2-(1H-pyrrol-1-yl)phenyl)-4-(2-(piperidin-1-yl)ethoxy)benzamide] displayed an IC50 in [1] (setting [11]) of 31.4 ± 4.7 µM.

On to `O=C(Nc1cc(F)ccc1-n1cccc1)c1ccc(OCCc2ccccc2)cc1` [LLM5, N-(5-fluoro-2-(1H-pyrrol-1-yl)phenyl)-4-phenethoxybenzamide], for which the half-maximal inhibitory concentration (IC50) in assay [1] (setting [11]) came to 64.4 ± 6.9 µM.

In [1] (Homo sapiens, SUM159, SUM159 human breast cancer cell line, MTT), `O=C(Nc1cc(F)ccc1-n1cccc1)c1ccc(OCCCCc2ccccc2)cc1` [LLM7, N-(5-fluoro-2-(1H-pyrrol-1-yl)phenyl)-4-(4-phenylbutoxy)benzamide] had a half-inhibitory concentration (IC50) of 58.7 ± 6.3 µM.

In the case of `O=C(Nc1cccc(-c2ccn[nH]2)c1)c1ccc(OCCCN2CCCCC2)cc1` [LLM41, N-(3-(1H-pyrazol-5-yl)phenyl)-4-(3-(piperidin-1-yl)propoxy)benzamide], the IC50 is 5.4 µM in assay [4] (Homo sapiens, U-266, U266, 72 h); 14 µM in assay [1] (Homo sapiens, SUM159, SUM159, Table 7); 13 µM in assay [2]. The “inhibitory effect compared to parent compound LLM4” value is on record as “greater inhibitory effects” in assay [4] (U266, 25 μM, 48 and 72 hours); “comparable or slightly better at inhibition” in assay [1]; “comparable or slightly better at inhibition” in assay [2]. Further, the Kd in assay [5] was determined as 21.6 µM. Moreover, the ΔGexp in [5] is -26.6 kJ/mol. For the same compound, in assay [6], the “inhibition of IL-6 induced STAT3 phosphorylation” value is “inhibited STAT3 phosphorylation stimulated by IL-6 in MCF7 cells in a dose dependent manner”.

In the case of `O=C(Nc1cccc(-c2ccn[nH]2)c1)c1cccc(OCCN2CCCCC2)c1` [LLM46, N-(3-(1H-pyrazol-5-yl)phenyl)-3-(2-(piperidin-1-yl)ethoxy)benzamide], the “inhibitory effect compared to parent compound LLM4” value in assay [1] and in assay [2] was “comparable or slightly better at inhibition” each time.

As to `O=C(Nc1ccccc1-c1ccn[nH]1)c1ccc(OCCCN2CCCCC2)cc1` [LLM417, N-(2-(1H-pyrazol-5-yl)phenyl)-4-(3-(piperidin-1-yl)propoxy)benzamide], the “inhibitory effect compared to parent compound LLM4” value in assay [1] and in assay [2] was “comparable or slightly better at inhibition” each time.

On to `CCCCC1=C(C)C(=O)[C@](C)(CN2c3ccccc3[C@]3(O)CCOC23)C1=O` (stereo partly drawn) [MDL-A, Madindoline A, reference compound], for which, in assay [5], the Kd stood at 330 µM and the ΔGexp is -19.9 kJ/mol. Besides, the Kd in [7] is 288 µM.

Regarding `O=C(NNc1nc2cc(F)ccc2n2cccc12)c1cnccn1` [SC144, reference compound], the IC50 came to 0.691 ± 0.064 µM in [3], 1.08 µM in assay [8], 1.22 µM in assay [9] and 4.7 µM in [10].
